Laboratory results as given in patent US20060177839A1, “Method for modulating the evolution of a polypeptide encoded by a nucleic acid sequence” (priority 2004, published 2006).

System: dfrB1 WT gene (dehydrofolate reductase conferring resistance to trimethoprim)
Conditions: resistance conferred by dfrB1 WT gene

`COc1cc(Cc2cnc(N)nc2N)cc(OC)c1OC` [trimethoprim] was tested, and the MIC was 512 micg/ml.
